This note sets out measurements from ChEMBL document CHEMBL1201862, “PubChem BioAssay data set” (2004).

Among the test systems are A498; A549; COLO 205; DU-145; HT-29; Hs-578T; IGROV-1; MCF7; OVCAR-3; OVCAR-4; PC-3; SF-295; SK-OV-3; SNB-19; SW-620; UACC-257; UO-31; HL-60; NCI-H460; RXF 393.
What all share (assay): DTP human tumour cell line panel, 48 h

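Step 1: Grow cells in 96-well plates. Step 2: Expose to compound for 48 hours at 5 concentrations. Step 3: Interpolate endpoints linearly; if unreached, use highest concentration. At the GI50, growth is halved.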 Calls of active or inactive are those of the source. Cut-off read from the data, not from the text of the source: active = GI50 up to about 1.1 µM and inactive = higher. Where a SMILES comes first, the peptide text is derived from it. The star is where a group is joined. Boc = CC(C)(C)OC(=O)*; Bn = c1ccc(C*)cc1 A value given as a limit tells only on which side of the number the result lay.

Take `COc1cc2oc(=O)cc(C)c2c(OC)c1OC`: the GI50 is 30.8 µM (inactive) in the test with A498; > 100 µM (inactive) in the test on A549; > 100 µM (inactive) with COLO 205; > 100 µM (inactive) with DU-145; > 100 µM (inactive) with HT-29; > 100 µM (inactive) with Hs-578T. Moreover, the GI50 in the test on IGROV-1, with MCF7, in the test with OVCAR-3, in the test with OVCAR-4, with PC-3 and in the test with SF-295 was > 100 µM (inactive) each time. Moreover, the GI50 is > 100 µM (inactive) in the test with SK-OV-3; > 100 µM (inactive) with SNB-19; > 100 µM (inactive) in the test on SW-620; > 100 µM (inactive) in the test on UACC-257; 38.7 µM (inactive) in the test with UO-31.
For `O=[N+]([O-])c1cc2[nH]nnc2c2nonc12`, the GI50 in the test with A549 was 61.5 µM (inactive); in the test on COLO 205 it was 17.5 µM (inactive); in the test on DU-145, 33.3 µM (inactive); in the test on HL-60, 5.45 µM (inactive); in the test with HT-29, 29.6 µM (inactive); with Hs-578T, 17.4 µM (inactive). Besides, the GI50 is 51.9 µM (inactive) with IGROV-1; 3.24 µM (inactive) in the test with MCF7; 35.1 µM (inactive) in the test with NCI-H460; 33.5 µM (inactive) with OVCAR-3; 30.1 µM (inactive) in the test on OVCAR-4; 49.4 µM (inactive) with PC-3. Moreover, the GI50 in the test on SF-295 is 31.7 µM (inactive); in the test with SK-OV-3 it was 46.8 µM (inactive); in the test on SNB-19, 30.7 µM (inactive); with SW-620 it was 30.7 µM (inactive); with UACC-257, 22.9 µM (inactive); in the test on UO-31 it was 17.9 µM (inactive).
On to `CCOC(=O)OC1C(Br)C2CCC1(C)C2(C)C` (stereo not drawn), for which the GI50 in the test on A549 is 16 µM (inactive); with COLO 205 it was 13 µM (inactive); with DU-145 it was 18.7 µM (inactive); with HL-60, 6.21 µM (inactive); with HT-29 it was 6.05 µM (inactive); in the test on Hs-578T, 13.8 µM (inactive). The GI50 is 18.7 µM (inactive) in the test with IGROV-1; 15 µM (inactive) in the test on MCF7; 4.79 µM (inactive) in the test on NCI-H460; 14.7 µM (inactive) in the test with OVCAR-3; 11.7 µM (inactive) in the test on OVCAR-4; 11.3 µM (inactive) in the test with PC-3. Moreover, the GI50 in the test on RXF 393 was 10.9 µM (inactive); in the test on SF-295 it was 15.3 µM (inactive); in the test on SK-OV-3 it was 15.7 µM (inactive); in the test with SNB-19, 14.6 µM (inactive); in the test with SW-620, 16.1 µM (inactive); with UACC-257 it was 15.9 µM (inactive). The GI50 in the test on UO-31 is 12 µM (inactive).
Regarding `N#Cc1nc(C2=C(Cl)c3ccccc3OC2)[nH]c1C#N`, the GI50 was 24.3 µM (inactive) in the test on A498; 33.3 µM (inactive) in the test with A549; 22.7 µM (inactive) in the test on HL-60; 19.1 µM (inactive) in the test with HT-29; 38.3 µM (inactive) in the test with Hs-578T; 30.1 µM (inactive) with IGROV-1. For the same compound, the GI50 with MCF7 is 22.8 µM (inactive); in the test on NCI-H460, 22 µM (inactive); in the test with OVCAR-3, 27.7 µM (inactive); in the test with OVCAR-4, 53.3 µM (inactive); in the test with PC-3, 11 µM (inactive); in the test with RXF 393 it was 13.9 µM (inactive). The GI50 in the test on SK-OV-3 is 36.7 µM (inactive); in the test on SNB-19, 29.8 µM (inactive); in the test with SW-620, 24.7 µM (inactive); with UO-31, 24 µM (inactive).
In the case of `O=[N+]([O-])c1cccc2nc3ccccc3c(NCCCNc3c4ccccc4nc4cccc([N+](=O)[O-])c34)c12`, the GI50 was < 0.0175 µM (active) in the test on A549; 0.0102 µM (active) in the test with COLO 205; < 0.0164 µM (active) in the test on DU-145; 0.12 µM (active) in the test on HL-60; < 0.01 µM (active) with HT-29; 0.0162 µM (active) in the test on Hs-578T. Also, the GI50 in the test on IGROV-1 is 0.128 µM (active); with MCF7, 0.0151 µM (active); in the test with NCI-H460 it was < 0.01 µM (active); in the test on OVCAR-3 it was < 0.0258 µM (active); in the test with OVCAR-4, 0.0635 µM (active); in the test with PC-3, 0.0343 µM (active). The GI50 in the test on RXF 393 is 0.0177 µM (active); in the test on SF-295 it was 0.037 µM (active); in the test on SK-OV-3, 0.0982 µM (active); with SNB-19 it was 0.0137 µM (active); in the test with SW-620 it was < 0.01 µM (active); in the test on UACC-257 it was 0.0556 µM (active). The GI50 with UO-31 is 0.0472 µM (active).
As for `COC(=O)C1=C(C)NC(C)=C(C(=O)OC)C1c1cccc(/[N+]([O-])=C/c2ccccc2)c1`, the GI50 in the test on A549 is > 100 µM (inactive); with COLO 205, 16.8 µM (inactive); in the test with DU-145, 78 µM (inactive); in the test with HL-60, 15.3 µM (inactive); in the test on HT-29, 28.3 µM (inactive); in the test on Hs-578T, 42.1 µM (inactive). Further, the GI50 was 74.3 µM (inactive) with IGROV-1; 17.8 µM (inactive) in the test with MCF7; 97.9 µM (inactive) in the test with NCI-H460; 17.4 µM (inactive) with OVCAR-3; 16.5 µM (inactive) with OVCAR-4; 46.7 µM (inactive) in the test with PC-3. Besides, the GI50 in the test on RXF 393 is 16.4 µM (inactive); in the test on SF-295, > 100 µM (inactive); in the test with SK-OV-3, > 100 µM (inactive); in the test on SNB-19, > 100 µM (inactive); with SW-620, 21.3 µM (inactive); in the test on UACC-257, 19 µM (inactive). Besides, the GI50 in the test on UO-31 is 34.2 µM (inactive).
For the compound `COC(=O)C[C@H]1[C@]2(C)C3=C(C)[C@H](c4ccoc4)CC3O[C@@H]2[C@@H]2OC(=O)[C@]3(C)CCC(=O)[C@@]1(C)[C@@H]23` (stereo partly drawn), the GI50 in the test on A498 is > 100 µM (inactive); in the test on A549, 47.1 µM (inactive); in the test with COLO 205 it was 62.8 µM (inactive); with DU-145 it was 32.4 µM (inactive); in the test on HL-60, 22.8 µM (inactive); with HT-29 it was 33.8 µM (inactive). Further, the GI50 is 36.1 µM (inactive) in the test on Hs-578T; 71.3 µM (inactive) with IGROV-1; 31.4 µM (inactive) in the test with MCF7; > 100 µM (inactive) in the test on NCI-H460; 53 µM (inactive) in the test on OVCAR-3; 41.3 µM (inactive) in the test with OVCAR-4. Besides, the GI50 in the test on RXF 393 is 53.5 µM (inactive); in the test on SF-295 it was > 100 µM (inactive); in the test with SK-OV-3, > 100 µM (inactive); in the test on SW-620, 50.6 µM (inactive); in the test with UACC-257, 61 µM (inactive); in the test with UO-31, 54.5 µM (inactive).
With `C[C@]12CC[C@H]3[C@@H](CC[C@]4(O)C[C@@H](O)CC[C@]34/C=N/O)[C@@]1(O)CC[C@@H]2C1=COC(=O)C1`, the 50% growth inhibitory concentration (GI50) with A498 was 0.0929 µM (active); in the test on A549, 0.0336 µM (active); in the test on COLO 205, 0.474 µM (active); with DU-145, 0.0637 µM (active); in the test on HL-60, 0.131 µM (active); in the test with HT-29, 0.146 µM (active). For the same compound, the GI50 in the test with Hs-578T is 0.112 µM (active); with IGROV-1, 0.136 µM (active); with NCI-H460, 0.0403 µM (active); in the test with OVCAR-3, 0.0472 µM (active); with OVCAR-4, 0.0608 µM (active); with PC-3, 0.149 µM (active). For the same compound, the concentration for 50% growth inhibition (GI50) with RXF 393 was 0.0318 µM (active); in the test on SF-295, 0.0545 µM (active); with SK-OV-3 it was 0.0436 µM (active); in the test on SNB-19 it was 0.673 µM (active); in the test on SW-620 it was 0.191 µM (active); in the test on UACC-257 it was 0.299 µM (active). Moreover, the GI50 in the test with UO-31 was 0.112 µM (active).
For the compound `COC(=O)[C@]1(C)CCC[C@]2(C)[C@@H](CCC(=O)C(C)C)[C@]3(C=O)O[C@@H]3C[C@H]21`, the GI50 was > 100 µM (inactive) in the test with A549; 35 µM (inactive) in the test with COLO 205; 39.4 µM (inactive) with DU-145; 40.1 µM (inactive) with HL-60; 38.9 µM (inactive) with HT-29; 41.6 µM (inactive) in the test on Hs-578T. The GI50 with MCF7 is 33.4 µM (inactive); in the test with NCI-H460 it was > 100 µM (inactive); with OVCAR-3 it was 33.4 µM (inactive); with OVCAR-4, 24.7 µM (inactive); in the test on PC-3 it was 28.4 µM (inactive); with RXF 393, 19 µM (inactive). The GI50 is 36.1 µM (inactive) in the test on SF-295; 35.6 µM (inactive) with SK-OV-3; 37.2 µM (inactive) in the test with SNB-19; 47.6 µM (inactive) with SW-620; 37.9 µM (inactive) in the test on UACC-257; 18.7 µM (inactive) in the test on UO-31.
For the compound `COC(=O)C(CC(C)C)NC(=O)C(C)NC(=O)C(Cc1ccc(OCc2ccccc2)cc1)NC(=O)C(COCc1ccccc1)NC(=O)OC(C)(C)C` (stereo not drawn) (Boc-S(Bn)Y(Bn)AL-OMe; configuration not given here), the GI50 in the test with A549 was > 100 µM (inactive); in the test with COLO 205 it was > 100 µM (inactive); in the test on DU-145 it was > 100 µM (inactive); in the test with HL-60 it was 41.2 µM (inactive); in the test on HT-29, > 100 µM (inactive); in the test with Hs-578T, 58.3 µM (inactive). Moreover, the GI50 in the test on IGROV-1 is > 100 µM (inactive); in the test on MCF7, > 100 µM (inactive); with NCI-H460, > 100 µM (inactive); with OVCAR-3, > 100 µM (inactive); in the test on OVCAR-4, 4.3 µM (inactive); in the test on PC-3 it was > 100 µM (inactive). In addition, the GI50 with RXF 393, in the test on SF-295, in the test on SK-OV-3, with SNB-19, in the test on SW-620 and in the test on UO-31 was > 100 µM (inactive) in each case.
Turning to `Cc1nc(=O)c2cc(CN(C)c3ccc(C(=O)N[C@@H](CCC(=O)O)C(=O)O)s3)ccc2[nH]1` [RALTITREXED], the GI50 in the test on A549 was 11.9 µM (inactive); in the test with COLO 205, > 100 µM (inactive); in the test on DU-145 it was 0.273 µM (active); with HL-60 it was 5.92 µM (inactive); with HT-29 it was > 100 µM (inactive); in the test with Hs-578T, > 100 µM (inactive). Moreover, the GI50 is > 100 µM (inactive) in the test on IGROV-1; 8.04 µM (inactive) in the test with MCF7; 0.041 µM (active) with NCI-H460; > 100 µM (inactive) in the test on OVCAR-3; > 100 µM (inactive) in the test with OVCAR-4; > 100 µM (inactive) with PC-3. Further, the 50% growth inhibitory concentration (GI50) in the test on SF-295 was 0.0535 µM (active); with SK-OV-3 it was > 100 µM (inactive); in the test on SNB-19, > 100 µM (inactive); in the test on SW-620, > 100 µM (inactive); with UACC-257, > 100 µM (inactive).

In general, GI50 refers to the concentration giving 50% growth inhibition.
